Key:
HeLa cells [1] = assay: Ca^2+-imaging of living cells; format: cell-based
Procedure: Ca^2+-imaging of living cells was carried out using CaTM-3-AM. In order to study the utility thereof, a comparison was made with CaTM-2-AM(N-[2-[(acetyloxy)]-2-oxoethyl]amino]-N-[2-[2-[2-[bis[2-[(acetyloxy)methoxy]-2-oxoethyl]amino]-5-[[4-(1,8-dichloro-2,9-dihydro-7-hydroxy-9,9-dimethyl-2-oxo-9-silaanthracen-10-yl)-3-methylbenzoyl]amino]phenoxy]ethoxy]phenyl]-glycine(acetyloxy)methyl ester), which has a methyl group at position 2 of the benzene ring instead of a carboxy group. HeLa cells were incubated for 30 minutes at 37° C. together with 3 μM of CaTM-2-AM or CaTM-3-AM in a Hank's balanced salt solution (HBSS) containing 0.03% DMSO. The cells were washed three times using HBSS, then HBSS was added and the cells were observed using a confocal microscope SP5 (Leica) with an excitation wavelength of 590 nm and a fluorescence wavelength of 610 to 680 nm.
Ca^2+ imaging was carried out during stimulation by histamine and ionomycin using cells to which CaTM-3-AM had been added. Histamine hydrochloride (1 μM) was added after 1 minute from the beginning of observation, and ionomycin (5 μM) was added after 4 minutes from the beginning of observation.

physchem = format: physicochemical
Procedure: The optical characteristics, absorbance spectra, and fluorescence spectra of the resulting ZnTM-1 depending on pHs are shown in FIG. 1. The pH-induced changes were measured using ZnTM-1 (1 μM) in a buffer of 0.1M sodium phosphate containing 15% DMSO. pKa was determined by biphasic fitting using the absorbance at the absorbance maximum wavelength. EDTA (100 μM) was added in order to eliminate the effect of trace metal ions during the measurement of quantum yield when Zn^2+ had not been added, and then measurement was carried out.

[2] = Optical characteristics, Zn^2+ addition experiment; format: physicochemical; settings: for Φf1: fluorescence quantum yield
Procedure: The optical characteristics, absorbance spectra, and fluorescence spectra of the resulting ZnTM-1 depending on pHs are shown in FIG. 1. The Zn^2+ addition experiment was carried out by adding ZnSO4 to a solution obtained by adding ZnTM-1 (1 μM) in a buffer of 0.1M HEPES (pH 7.4) containing 15% DMSO. pKa was determined by biphasic fitting using the absorbance at the absorbance maximum wavelength. EDTA (100 μM) was added in order to eliminate the effect of trace metal ions during the measurement of quantum yield when Zn^2+ had not been added, and then measurement was carried out.

HeLa cells [3] = assay: Cell imaging using ZnTM-1; format: cell-based; settings: 10 μM, 30 min at 37° C., HBSS 1% DMSO, ZnSO4 (50 μM)/pyrithione (5 μM), then TPEN (100 μM)
Procedure: Cell imaging was carried out using ZnTM-1. HeLa cells were incubated for 30 minutes at 37° C. together with 10 μM of ZnTM-1 in a Hank's balanced salt solution (HBSS) containing 1% DMSO. The mixture was washed once using HBSS, then HBSS was added and the cells were observed using an epifluorescence microscope IX-71 (Olympus) with an excitation wavelength of 565 to 585 nm and a fluorescence wavelength of 600 to 690 nm. The observation was carried out in every 30 seconds, ZnSO4 (50 μM) and pyrithione (5 μM), which is an ionophore, were added after 2 minutes and 30 seconds from the beginning of observation, and TPEN (100 μM), which is a cell-membrane-permeating zinc chelator, was added after 6 minutes from the beginning of observation.

[4] = ZnTM-1 1 μM, 0.1M HEPES (pH 7.4) containing 15% DMSO, Zn^2+ not added

Structure (SMILES) | Brightness of fluorescence image (HeLa cells [1]; HeLa cells, 3 μM, 30 min at 37° C., HBSS 0.03% DMSO, excitation 590 nm, fluorescence 610 to 680 nm) | Quantity of fluorescent probe taken into cells (HeLa cells [1]; HeLa cells, 3 μM, 30 min at 37° C., compared with CaTM-2-AM) | Detection of variation in intracellular Ca^2+ during stimulation (HeLa cells [1]; histamine hydrochloride (1 μM) after 1 minute, ionomycin (5 μM) after 4 minutes) | pKa (physchem) | λabs (nm) [2, 4] [nm] | λf1 (nm) [2, 4] [nm] | Φf1 ([2]; + 10 eq Zn^2+ (ZnSO4), 0.1M HEPES (pH 7.4) containing 15% DMSO) | Φf1 ([2]; Zn^2+ not added, EDTA (100 μM) added) | Cell uptake and function as Zn^2+-detecting fluorescent probe (HeLa cells [3])
CC(=O)OCOC(=O)CN(CC(=O)OCOC(C)=O)c1ccccc1OCCOc1cc(NC(=O)c2ccc(C3=C4C=CC(=O)C(Cl)=C4[Si](C)(C)c4c3ccc(O)c4Cl)c(C(=O)O)c2)ccc1N(CC(=O)OCOC(C)=O)CC(=O)OCOC(C)=O [CaTM-3-AM, 5-[[[4-[bis[2-[(acetyloxy)methoxy]-2-oxoethyl]amino]-5-[2-[2-[bis[2-[(acetyloxy)methoxy]-2-oxoethyl]amino]phenoxy]ethoxy]-phenyl]amino]carbonyl]-2-(1,8-dichloro-2,9-dihydro-7-hydroxy-9,9-dimethyl-2-oxo-9-silaanthracen-10-yl)-benzoic acid] | brighter fluorescence image than does CaTM-2-AM | a larger quantity of fluorescent probes is taken into cells | can be accurately ascertained | – | – | – | – | – | –
C[Si]1(C)C2=C(F)C(=O)C=CC2=C(c2ccc(C(=O)Nc3ccc(NCCN(Cc4ccccn4)Cc4ccccn4)cc3)cc2C(=O)O)c2ccc(O)c(F)c21 [ZnTM-1, 5-[[[4-[[2-[bis(2-pyridinylmethyl)amino]ethyl]amino]phenyl]amino]carbonyl]-2-(1,8-difluoro-2,9-dihydro-7-hydroxy-9,9-dimethyl-2-oxo-9-silaanthracen-10-yl)benzoic acid] | – | – | – | 7.2 | 589 | 601 | 0.281 | 0.062 | is taken into the cell and functions effectively as a Zn^2+-detecting fluorescent probe
